Data from patent US20240366612A1, “COMPOUNDS AND METHODS FOR MODULATING NUCLEIC ACID SPLICING” (REMIX THERAPEUTICS INC., priority 2021, published 2024).
pIC50: −log10 of the molar value. Structures can show the parent of a compound that is named as a salt.

Tests used:
MYB mRNA = assay: Splicing RT-qPCR assay, MYB canonical (CJ) and alternative (AJ) junction mRNA; format: cell-based; settings: Homo sapiens, A673 or K562 cells, 24 hours treatment; for pIC50: decrease in CJ mRNA; for AC50: increase in AJ mRNA
Summary of the method: (§1)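 Compound-treated A673 or K562 cells (11-point 3-fold dilution, top dose 10 uM final, DMSO ≤0.25%) were incubated for 24 h at 37° C. Lysates underwent one-step RT-qPCR for canonical and alternative-exon junction isoforms. Normalization used PPIA for A673 and GAPDH or GUSB for K562.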

HTT CJ mRNA = assay: Gene panel canonical junction qPCR assay, HTT; format: cell-based; settings: Homo sapiens, larger gene panel, read-out: HTT IC50 (decrease in CJ mRNA levels)
Summary of the method: (§2)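 A673 or K562 cells treated 24 h with 11-point 3-fold dilutions (top 10 µM, ≤0.25% DMSO) at 37 °C. Canonical exon-junction mRNA measured by probe-based RT-qPCR, normalized to GAPDH, GUSB or PPIA and DMSO (2^−ΔΔCt), converted to percent response over a fixed ΔCt window; IC50 from 4-parameter fit.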

[1] = Cell Titer Glo 2.0 cell viability assay; settings: human, K562 cells
HTT mRNA = assay: Splicing RT-qPCR assay, HTT canonical (CJ) and alternative (AJ) junction mRNA; format: cell-based; settings: Homo sapiens, A673 or K562 cells, 24 hours treatment; for pIC50: decrease in CJ mRNA; for AC50: increase in AJ mRNA
Summary of the method: as §1

SMN2 CJ mRNA = assay: Gene panel canonical junction qPCR assay, SMN2; format: cell-based; settings: Homo sapiens, larger gene panel, read-out: SMN2 IC50 (decrease in CJ mRNA levels)
Summary of the method: as §2

Target C CJ mRNA = assay: Gene panel canonical junction qPCR assay, Target C; format: cell-based; settings: Homo sapiens, larger gene panel, read-out: Target C IC50 (decrease in CJ mRNA levels)
Summary of the method: as §2

Structure (SMILES) | pIC50 (MYB mRNA) | AC50 (MYB mRNA) [nM] | pIC50 (HTT CJ mRNA) | GI50 at 72 h [1] [nM] | pIC50 (HTT mRNA) | AC50 (HTT mRNA) [nM] | pIC50 (SMN2 CJ mRNA) | pIC50 (Target C CJ mRNA)
Cc1cc(-c2cc3ncn(C4CCNCC4)c(=O)c3s2)cc2cn(C)nc12 [Compound 236, 6-(2,7-dimethyl-2H-indazol-5-yl)-3-(piperidin-4-yl)thieno[3,2-d]pyrimidin-4(3H)-one] | 6.00 to 7.00 | 100 to 1000 | > 7.00 | 100 to 1000 | > 7.00 | 100 to 1000 | > 7.00 | 6.00 to 7.00
Cc1cc(-c2cc3ncn(C4CCN(C)CC4)c(=O)c3s2)cc2cn(C)nc12 [Compound 237, 6-(2,7-dimethyl-2H-indazol-5-yl)-3-(1-methylpiperidin-4-yl)thieno[3,2-d]pyrimidin-4(3H)-one] | 6.00 to 7.00 | < 100 | 6.00 to 7.00 | 100 to 1000 | 6.00 to 7.00 | 100 to 1000 | > 7.00 | 5.00 to 6.00
Cc1cn2nc(-c3cc4ncn(C5CCNCC5)c(=O)c4s3)cc(C)c2n1 [Compound 238, 6-(2,8-dimethylimidazo[1,2-b]pyridazin-6-yl)-3-(piperidin-4-yl)thieno[3,2-d]pyrimidin-4(3H)-one] | 6.00 to 7.00 | 100 to 1000 | 6.00 to 7.00 | 1000 to 10000 | 6.00 to 7.00 | 100 to 1000 | > 7.00 | 5.00 to 6.00
Cc1cn2nc(-c3cc4ncn(C5CCN(C)CC5)c(=O)c4s3)cc(C)c2n1 [Compound 239, 6-(2,8-dimethylimidazo[1,2-b]pyridazin-6-yl)-3-(1-methylpiperidin-4-yl)thieno[3,2-d]pyrimidin-4(3H)-one] | 5.00 to 6.00 | 100 to 1000 | 5.00 to 6.00 | 1000 to 10000 | 5.00 to 6.00 | 1000 to 10000 | > 7.00 | < 5.00
Cc1cn2cc(-c3nc4sc(C5CCNCC5)cc4c(=O)[nH]3)cc(F)c2n1 [Compound 250, 2-(8-fluoro-2-methylimidazo[1,2-a]pyridin-6-yl)-6-(piperidin-4-yl)thieno[2,3-d]pyrimidin-4(3H)-one] | 6.00 to 7.00 | 100 to 1000 | 6.00 to 7.00 | 100 to 1000 | 6.00 to 7.00 | 100 to 1000 | 6.00 to 7.00 | 6.00 to 7.00
Cc1nc(-c2nc3ncn(C4CCNCC4)c(=O)c3s2)cc2cn(C)nc12 [Compound 251, 2-(2,7-dimethyl-2H-pyrazolo[3,4-c]pyridin-5-yl)-6-(piperidin-4-yl)thiazolo[4,5-d]pyrimidin-7(6H)-one] | 5.00 to 6.00 | > 10000 | 5.00 to 6.00 | 1000 to 10000 | 5.00 to 6.00 | 1000 to 10000 | 6.00 to 7.00 | < 5.00
Cn1cc2cc(-c3nc4ncn(C5CCNCC5)c(=O)c4s3)c(O)cc2n1 [Compound 253, 2-(6-hydroxy-2-methyl-2H-indazol-5-yl)-6-(piperidin-4-yl)thiazolo[4,5-d]pyrimidin-7(6H)-one, hydrochloride] | 5.00 to 6.00 | 1000 to 10000 | 5.00 to 6.00 | > 10000 | 5.00 to 6.00 | 1000 to 10000 | 6.00 to 7.00 | 5.00 to 6.00
Cc1cn2cc(-c3nc4sc(C5CCN(C)CC5)cc4c(=O)[nH]3)cc(F)c2n1 [Compound 256, 2-(8-fluoro-2-methylimidazo[1,2-a]pyridin-6-yl)-6-(1-methylpiperidin-4-yl)thieno[2,3-d]pyrimidin-4(3H)-one] | < 5.00 | > 10000 | < 5.00 | > 10000 | < 5.00 | > 10000 | 5.00 to 6.00 | < 5.00
Cn1cc2cc(-c3cc4ncn(C5CCNCC5)c(=O)c4s3)cc(F)c2n1 [Compound 257] | 5.00 to 6.00 | 1000 to 10000 | 5.00 to 6.00 | 1000 to 10000 | 5.00 to 6.00 | 1000 to 10000 | 5.00 to 6.00 | 5.00 to 6.00
Cn1cc2cc(-c3cc4ncn(C5CCNCC5)c(=O)c4s3)c(F)cc2n1 [Compound 258] | 6.00 to 7.00 | 100 to 1000 | 6.00 to 7.00 | 1000 to 10000 | 6.00 to 7.00 | 100 to 1000 | > 7.00 | 5.00 to 6.00
Cn1cc2cc(-c3cc4ncn(C5CCNCC5)c(=O)c4s3)cc(C#N)c2n1 [Compound 259] | 6.00 to 7.00 | 100 to 1000 | 5.00 to 6.00 | 1000 to 10000 | 5.00 to 6.00 | 1000 to 10000 | > 7.00 | 5.00 to 6.00
COc1cc(-c2cc3ncn(C4CCNCC4)c(=O)c3s2)cnn1 [Compound 260] | 5.00 to 6.00 | 1000 to 10000 | 5.00 to 6.00 | 1000 to 10000 | 5.00 to 6.00 | 1000 to 10000 | 5.00 to 6.00 | 5.00 to 6.00
Cc1cn2cc(-c3cc4ncn(C5CCNCC5)c(=O)c4s3)cc(C)c2n1 [Compound 261] | 6.00 to 7.00 | 100 to 1000 | 6.00 to 7.00 | 1000 to 10000 | 6.00 to 7.00 | 1000 to 10000 | > 7.00 | 5.00 to 6.00
Cc1cn2nc(-c3cc4ncn(C5CCNCC5)c(=O)c4s3)cc2c(C)n1 [Compound 262] | 6.00 to 7.00 | 100 to 1000 | 6.00 to 7.00 | 100 to 1000 | 6.00 to 7.00 | 100 to 1000 | 6.00 to 7.00 | 6.00 to 7.00
COc1cc(-c2cc3ncn(C4CCNCC4)c(=O)c3s2)ccn1 [Compound 263] | 5.00 to 6.00 | 1000 to 10000 | 5.00 to 6.00 | 1000 to 10000 | 5.00 to 6.00 | 1000 to 10000 | 5.00 to 6.00 | 5.00 to 6.00
Cc1cn2cc(-c3cc4ncn(C5CCNCC5)c(=O)c4s3)ncc2n1 [Compound 264] | 5.00 to 6.00 | 1000 to 10000 | 5.00 to 6.00 | 1000 to 10000 | 5.00 to 6.00 | 1000 to 10000 | 6.00 to 7.00 | 5.00 to 6.00
Cc1cn2cc(-c3cc4ncn(C5CCN(C)CC5)c(=O)c4s3)cc(F)c2n1 [Compound 265, 6-{8-fluoro-2-methylimidazo[1,2-a]pyridin-6-yl}-3-(1-methylpiperidin-4-yl)thieno[3,2-d]pyrimidin-4-one] | 6.00 to 7.00 | 100 to 1000 | 6.00 to 7.00 | 100 to 1000 | 6.00 to 7.00 | 100 to 1000 | > 7.00 | 6.00 to 7.00
Cc1cn2nc(-c3nc4sc(N5CCNCC5)nc4c(=O)[nH]3)cc2c(C)n1 [Compound 267] | 6.00 to 7.00 | 100 to 1000 | 6.00 to 7.00 | 100 to 1000 | 6.00 to 7.00 | 100 to 1000 | 6.00 to 7.00 | 6.00 to 7.00
Cc1cn2nc(-c3nc4sc(N5CCN(C)CC5)nc4c(=O)[nH]3)cc2c(C)n1 [Compound 268] | < 5.00 | 1000 to 10000 | < 5.00 | > 10000 | < 5.00 | > 10000 | 6.00 to 7.00 | < 5.00
